# Entries after “also recorded” stand apart in the source; their conditions may differ. Read-outs that look alike come from different tables or passages of the source.
# How the values were obtained:
# [1] = Plasma pharmacokinetics of baxdrostat and CIN-107-M, multiple ascending dose phase 1 study; assay type: in vivo, human; conditions: for RAUC (accumulation ratio based on AUC) / RCmax (accumulation ratio based on Cmax): day 10 vs day 1, mean ± SD; for Cmax / Tmax / Vd/F / half-life: human, plasma, po; for Vd/F: read-out: Vss/F
# Procedure: Subjects were randomized in a 3:1 ratio to baxdrostat or placebo once daily for 10 days as follows: • Cohort 1: 2.5 mg baxdrostat or matching placebo on a low-salt diet, 9 subjects receiving baxdrostat and 3 subjects receiving placebo • Cohort 2: 5.0 mg baxdrostat or matching placebo on a low-salt diet, 9 subjects receiving baxdrostat and 3 subjects receiving placebo • Cohort 3: 1.5 mg baxdrostat or matching placebo on a normal-salt diet, 9 subjects receiving baxdrostat and 3 subjects receiving placebo • Cohort 4: 2.5 mg baxdrostat or matching placebo on a normal-salt diet, 6 subjects receiving baxdrostat and 2 subjects receiving placebo • Cohort 5: 0.5 mg baxdrostat or matching placebo on a normal-salt diet, 9 subjects receiving baxdrostat and 3 subjects receiving placebo.
# The study drug was a 2 mg/mL baxdrostat oral solution and matching oral placebo solution. Subjects received a single dose of oral solution of baxdrostat or placebo on the mornings of days 1 through 10 at 8:00 a.m. (± 2 h). On days 1 and 10, the dose was given following an overnight fast (of at least 8 h), and subjects remained fasted for at least 4 h after dosing on these days. On all other days, subjects fasted for a minimum of 2 h before and 2 h after dosing.
# (§1) Plasma and urine samples were analyzed to measure concentrations of baxdrostat and its primary metabolite (CIN-107-M), aldosterone and its precursors, cortisol and its precursor, and ACTH using a validated liquid chromatography tandem mass spectrometry method (LC-MS/MS). The quantifiable ranges for both baxdrostat and its metabolite CIN-107-M in plasma and urine were 0.05 to 50 ng/mL (low range) and 5 to 2500 ng/mL (high range), using baxdrostat-d5 and CIN-107-M-d3, respectively, as the internal standards. Plasma samples were extracted by protein precipitation with methanol, followed by analysis by LC-MS/MS with electrospray ionization in positive mode and multiple reaction monitoring. All scheduled study-related laboratory tests were performed by Medpace Reference Laboratories (Cincinnati, OH, USA), Medpace Bioanalytical Laboratories (Cincinnati, OH, USA), Mercy Health—West Hospital Laboratory (Cincinnati, OH, USA), or Laboratory Corporation of America (Dublin, OH, USA).
# Blood samples were collected prior to and after dosing on days 1 and 10 for measurement of plasma baxdrostat and CIN-107-M concentrations to characterize single-dose and steady-state PK. Pharmacokinetic parameters were calculated by standard noncompartmental methods using Phoenix WinNonlin™ (Certara, Inc., Princeton, NJ) and verified with SAS (SAS Institute, Inc., Cary, NC) software. […] Steady-state plasma PK parameters consisted of accumulation ratio based on Cmax (RCmax), accumulation ratio based on AUC (RAUC), apparent first-order terminal elimination rate constant (λz), terminal phase elimination half-life (t1/2), apparent plasma clearance (CLss/F), and apparent volume of distribution (Vss/F).
# plasma cortisol = assay: Plasma and urine cortisol and 11-deoxycortisol (pharmacodynamics, with ACTH challenge in low-salt cohorts); assay type: in vivo, human
# Procedure: Cohorts 1 and 2 also underwent an ACTH (Cortrosyn^TM) challenge at baseline (day −1), 1 h after the first dose of study drug on day 1, and 1 h after the final dose of study drug on day 10. This was done to increase aldosterone and cortisol levels to more thoroughly evaluate the specificity of baxdrostat for targeting aldosterone synthase. The ACTH challenge consisted of an intravenous injection of 0.25 mg Cortrosyn^TM administered over 2 min after an overnight fast.
# as §1, with “All scheduled study-related laboratory tests were performed by Medpace Reference Laboratories (Cincinnati, OH, USA), Medpace Bioanalytical Laboratories (Cincinnati, OH, USA), Mercy Health—West Hospital Laboratory (Cincinnati, OH, USA), or Laboratory Corporation of America (Dublin, OH, USA).” left out
# Plasma PD measures included concentrations of aldosterone, 18-hydroxycorticosterone, corticosterone, 11-deoxycorticosterone, cortisol (free and total), 11-deoxycortisol, ACTH, sodium, chloride, and potassium. AUCs were calculated using a noncompartmental analysis and the linear trapezoidal/linear interpolation method. […]
# Subjects who received placebo were pooled into 2 treatment groups: placebo with low-salt diet and placebo with normal-salt diet. Descriptive statistics were calculated for PK, PD, and safety measures. […] The results of the exploratory dose proportionality power model were assessed using the Smith criteria (0.9031, 1.0969) and the less stringent Hummel criteria (0.6990, 1.3010).
# [2] = 0.5 mg oral once daily, normal-salt diet, day 10, mean ± SD
# [3] = 0.5 mg oral once daily, normal-salt diet
# [4] = 1.5 mg oral once daily, normal-salt diet, day 10, mean ± SD
# [5] = 1.5 mg oral once daily, normal-salt diet
# [6] = 2.5 mg oral once daily, low-salt diet, day 10, mean ± SD
# [7] = 2.5 mg oral once daily, low-salt diet
# [8] = 2.5 mg oral once daily, normal-salt diet, day 10, mean ± SD, n=5
# [9] = 2.5 mg oral once daily, normal-salt diet, n=5
# [10] = 5.0 mg oral once daily, low-salt diet, day 10, mean ± SD
# [11] = 5.0 mg oral once daily, low-salt diet
# [12] = also with ACTH challenge in low-salt diet groups
smiles,measurement,setting,value
CCC(=O)N[C@@H]1CCCc2c(-c3ccc4c(c3)CCC(=O)N4C)cncc21 [baxdrostat],AUC0-24hr,"[1]; 0.5 mg oral once daily, normal-salt diet, day 1, mean ± SD",79.47 ± 17.34 h‧ng/mL
same,AUC0-tau,[1]; [2],155.19 ± 35.70 h‧ng/mL
same,CLss/F,[1]; [2],3.42 ± 1.01 L/h
same,RAUC (accumulation ratio based on AUC),[1]; [3],1.96 ± 0.27
same,RCmax (accumulation ratio based on Cmax),[1]; [3],1.83 ± 0.26
same,AUC0-24hr,"[1]; 1.5 mg oral once daily, normal-salt diet, day 1, mean ± SD",205.31 ± 36.74 h‧ng/mL
same,AUC0-tau,[1]; [4],479.67 ± 138.21 h‧ng/mL
same,CLss/F,[1]; [4],3.35 ± 0.92 L/h
same,RAUC (accumulation ratio based on AUC),[1]; [5],2.31 ± 0.32
same,RCmax (accumulation ratio based on Cmax),[1]; [5],2.13 ± 0.24
same,AUC0-24hr,"[1]; 2.5 mg oral once daily, low-salt diet, day 1, mean ± SD",365.79 ± 65.51 h‧ng/mL
same,AUC0-tau,[1]; [6],782.99 ± 143.02 h‧ng/mL
same,CLss/F,[1]; [6],3.28 ± 0.53 L/h
same,RAUC (accumulation ratio based on AUC),[1]; [7],2.15 ± 0.16
same,RCmax (accumulation ratio based on Cmax),[1]; [7],1.97 ± 0.30
same,AUC0-24hr,"[1]; 2.5 mg oral once daily, normal-salt diet, day 1, mean ± SD",343.98 ± 92.44 h‧ng/mL
same,AUC0-tau,[1]; [8],676.51 ± 343.78 h‧ng/mL
same,CLss/F,[1]; [8],4.32 ± 1.59 L/h
same,RAUC (accumulation ratio based on AUC),[1]; [9],1.99 ± 0.45
same,RCmax (accumulation ratio based on Cmax),[1]; [9],1.71 ± 0.58
same,AUC0-24hr,"[1]; 5.0 mg oral once daily, low-salt diet, day 1, mean ± SD",657.85 ± 137.40 h‧ng/mL
same,AUC0-tau,[1]; [10],1659.41 ± 440.51 h‧ng/mL
same,CLss/F,[1]; [10],3.21 ± 0.84 L/h
same,RAUC (accumulation ratio based on AUC),[1]; [11],2.51 ± 0.26
same,RCmax (accumulation ratio based on Cmax),[1]; [11],2.42 ± 0.33
same,"dose proportionality of Cmax and AUC (power model, Hummel criteria)","[1]; day 1 (Cmax, AUC0-24 h) and day 10 (Cmax, AUC0-tau, AUC0-t)",proportional increase
same,Cmax,"[1]; 0.5 mg, 0.5 mg oral once daily, normal-salt diet, day 1, mean ± SD, n=9, read-out: Cmax,D1",5.36 ± 1.25 ng/mL
same,Tmax,"[1]; 0.5 mg, 0.5 mg oral once daily, normal-salt diet, day 1, read-out: Tmax,D1, median (min, max)",2 h
same,Cmax,"[1]; 0.5 mg, 0.5 mg oral once daily, normal-salt diet, day 10, mean ± SD, read-out: Cmax,D10",9.72 ± 2.27 ng/mL
same,Vd/F,"[1]; 0.5 mg, 0.5 mg oral once daily, normal-salt diet, day 10, mean ± SD",152 ± 44.5 L
same,half-life,"[1]; 0.5 mg, 0.5 mg oral once daily, normal-salt diet, day 10, mean ± SD, read-out: t1/2 (converted)",31.2 ± 5.8 h
same,Tmax,"[1]; 0.5 mg, 0.5 mg oral once daily, normal-salt diet, day 10, read-out: Tmax,D10, median (min, max)",2 h
same,Cmax,"[1]; 1.5 mg, 1.5 mg oral once daily, normal-salt diet, day 1, mean ± SD, n=9, read-out: Cmax,D1",14 ± 2.24 ng/mL
same,Tmax,"[1]; 1.5 mg, 1.5 mg oral once daily, normal-salt diet, day 1, read-out: Tmax,D1, median (min, max)",2.5 h
same,Cmax,"[1]; 1.5 mg, 1.5 mg oral once daily, normal-salt diet, day 10, mean ± SD, read-out: Cmax,D10",29.9 ± 6.1 ng/mL
same,Vd/F,"[1]; 1.5 mg, 1.5 mg oral once daily, normal-salt diet, day 10, mean ± SD",137 ± 15.8 L
same,half-life,"[1]; 1.5 mg, 1.5 mg oral once daily, normal-salt diet, day 10, mean ± SD, read-out: t1/2 (converted)",29.9 ± 7.71 h
same,Tmax,"[1]; 1.5 mg, 1.5 mg oral once daily, normal-salt diet, day 10, read-out: Tmax,D10, median (min, max)",2.5 h
same,Cmax,"[1]; 2.5 mg, 2.5 mg oral once daily, low-salt diet, day 1, mean ± SD, n=9, read-out: Cmax,D1",28.1 ± 5.9 ng/mL
same,Tmax,"[1]; 2.5 mg, 2.5 mg oral once daily, low-salt diet, day 1, read-out: Tmax,D1, median (min, max)",3 h
same,Cmax,"[1]; 2.5 mg, 2.5 mg oral once daily, low-salt diet, day 10, mean ± SD, read-out: Cmax,D10",54 ± 7.56 ng/mL
same,Vd/F,"[1]; 2.5 mg, 2.5 mg oral once daily, low-salt diet, day 10, mean ± SD",135 ± 36.7 L
same,half-life,"[1]; 2.5 mg, 2.5 mg oral once daily, low-salt diet, day 10, mean ± SD, read-out: t1/2 (converted)",28.4 ± 4.75 h
same,Tmax,"[1]; 2.5 mg, 2.5 mg oral once daily, low-salt diet, day 10, read-out: Tmax,D10, median (min, max)",2 h
same,Cmax,"[1]; 2.5 mg, 2.5 mg oral once daily, normal-salt diet, day 1, mean ± SD, n=6, read-out: Cmax,D1",26.2 ± 4.76 ng/mL
same,Tmax,"[1]; 2.5 mg, 2.5 mg oral once daily, normal-salt diet, day 1, read-out: Tmax,D1, median (min, max)",3 h
same,Cmax,"[1]; 2.5 mg, 2.5 mg oral once daily, normal-salt diet, day 10, mean ± SD, n=5, read-out: Cmax,D10",43.9 ± 18.7 ng/mL
same,Vd/F,"[1]; 2.5 mg, 2.5 mg oral once daily, normal-salt diet, day 10, mean ± SD, n=5",150 ± 42.4 L
same,half-life,"[1]; 2.5 mg, 2.5 mg oral once daily, normal-salt diet, day 10, mean ± SD, n=5, read-out: t1/2 (converted)",25.6 ± 5.95 h
same,Tmax,"[1]; 2.5 mg, 2.5 mg oral once daily, normal-salt diet, day 10, n=5, read-out: Tmax,D10, median (min, max)",3 h
same,Cmax,"[1]; 5 mg, 5.0 mg oral once daily, low-salt diet, day 1, mean ± SD, n=9, read-out: Cmax,D1",47.3 ± 12.3 ng/mL
same,Tmax,"[1]; 5 mg, 5.0 mg oral once daily, low-salt diet, day 1, read-out: Tmax,D1, median (min, max)",3.02 h
same,Cmax,"[1]; 5 mg, 5.0 mg oral once daily, low-salt diet, day 10, mean ± SD, read-out: Cmax,D10",113 ± 25.9 ng/mL
same,Vd/F,"[1]; 5 mg, 5.0 mg oral once daily, low-salt diet, day 10, mean ± SD",134 ± 42 L
same,half-life,"[1]; 5 mg, 5.0 mg oral once daily, low-salt diet, day 10, mean ± SD, read-out: t1/2 (converted)",29.4 ± 6.47 h
same,Tmax,"[1]; 5 mg, 5.0 mg oral once daily, low-salt diet, day 10, read-out: Tmax,D10, median (min, max)",3 h
same,Tmax,"[1]; across doses 0.5-5.0 mg oral once daily, read-out: median Tmax (time to peak plasma concentration after dosing)",≤ 4 h
same,half-life,"[1]; range across doses 0.5-5.0 mg oral once daily for 10 days, read-out: mean t1/2",26 to 31 h
same,effect on urine free cortisol,plasma cortisol; 24 h urine collections,no meaningful effect
same,effect on plasma 11-deoxycortisol,plasma cortisol; [12],no meaningful effect
same,effect on plasma cortisol (total or free),plasma cortisol; [12],no meaningful impact; also recorded: no meaningful effect
